Key:
nicotinic receptor = assay: Nicotinic receptor function in intact chick retina; assay type: cell-based
Protocol: Eyecups were obtained from 2-to 5-day-old chicks and continuously superfused at 20-25° C. at a rate of 8 ml/min with Tyrodes solution (130 mM NaCl, 3 mM KCl, 17 mM dextrose, 20 mM NaHCO3, 0.01% w/v phenol red; bubbled with a gas mixture of 95% O2 and 5% CO2) containing 5 mM MgCl2 to reduce synaptic activity. […] Traces were triggered by the opening of two solenoid valves that shunted approximately 200 μl of agonist (1, 1-dimethyl-4-phenyl-piperazinium iodide, DMPP or NMDA) into the perfusion line, Agonists reached the preparation approximately 7s later. The resulting responses originated, at least in part, in the retinal ganglion cells. Some experiments were performed in the presence of 10 μg/ml catalase and 1 μg/ml superoxide dismutase. Antagonists, reducing agents, or oxidizing agents were introduced directly via the perfusate.
The action of DTT lasted for tens of minutes after the reducing agent was removed; any small decrement in the potentiation could be reversed with additional DTT treatment. The function of the nicotinic receptors was restored upon oxidation with 0.1-1.0 mM DTNB (applied for 5 min). […] The reduction and oxidation effects could be alternated repeatedly for as long as the preparation remained stable, which was often more than 9 hr.

retinal ganglion cells = assay: Survival of retinal ganglion cells exposed to glutamate (NMDA neurotoxicity); assay type: cell-based, rat
Protocol: To investigate the influence of redox modulation on NMDA neurotoxicity, survival of an identified central neuron, the retinal ganglion cell, was monitored for 12-24 hr after a brief (5-10 min.) exposure to DTT. To determine the degree of killing specifically related to activation of the NMDA receptor, APV at 200 μM was added to sibling cultures. APV-preventable, glutamate-induced death was increased 70±9% with DTT treatment.
Retinal ganglion cell neurons were labeled in situ, dissociated from the retina, and cultured as follows. Retinal ganglion cells from 7- to 12-day-old Long-Evans rats were labeled and enzymatically dissociated as described by Leifer et al., Science 224: 303, 1984. Following rinse of the dissociated retinal cells with a physiological saline based on Hanks' salts (composition in mM: NaCl, 137; NaHCO3, 1; Na2HPO4, 0.34; KCl, 5,36; KH2PO4, 0.44; CaCl2, 1.25, MgSO4, 0.5; MgCl2, 0.5; N-2-hydroxyethyl-piperazine-N′-2-ethanesulfonic acid (HEPES), 5; dextrose, 22.2; Phenol Red, 0.001% v/v; adjusted to pH 7.2 with 0.3 M NaOH), the cells were mechanically dispersed and aliquoted to treatment vials. These vials contained control saline solution, or saline solution with either 0.5-2 mM DTT, or 0.5 mM DTT in the presence of 1 mM DTNB. Treatment groups with DTNB were readjusted to pH 7.2 with 0.3 M NaOH. Cells were agitated gently over a 5-10 min period. After treatment, 100 μl volumes of the cell suspension were plated onto glass coverslips coated with poly-L-lysine in 35×10 mm tissue-culture dishes containing 2 ml of culture medium. The cell culture medium was based on Eagle's minimum essential medium (MEM), modified so that it was nominally free of magnesium and contained 10 mM CaCl2 to enhance NMDA receptor-mediated neuro-toxicity. The medium was also supplemented with methylcellulose 0.7% w/v, gentamicin 1 μg/ml, dextrose 16 mM, and rat serum 5% v/v. Glutamate levels in the culture medium were monitored by HPLC analysis. Concentrations of glutamate added to the medium of each experiment to induce cell killing averaged 10 μM (day to day variability in neuronal cell death was most probably due to slight variations in the amount of endogenous glutamate or a glutamate-like substance in these cultures). The 100 μl aliquots of cell suspension diluted into the 2 ml of MEM produced a final concentration of 50 μM Mg^2+, as well as levels of DTT and DTNB at 5% of their initial treatment concentrations. The cell cultures were incubated for 12-24 hours at 37° C. in an atmosphere of 5% CO2/95% humidified air. Neuronal survival was then scored by counting retinal ganglion cells displaying uptake and cleavage of fluorescein diacetate to fluorescein, as described by Hahn et al. Proc. Nat. Acad. Sci. USA 85:6556, 1988.
Experiments were conducted in triplicate and repeated on eleven separate days. In order to compare results obtained on different days, data were normalized such that the total number of surviving neurons in a given experiment divided by the number of treatment categories (i.e., 4) equalled 100.
Retinal cells were cultured as described in Example 1. In these experiments transient exposure to the reduced form of DTT (500 μM) occurred in the presence of DTNB (1 mM).

SMILES | nicotinic receptor function upon oxidation (nicotinic receptor; 0.1-1.0 mM DTNB applied for 5 min, after DTT) | DTT-enhanced glutamate-induced death with concomitant DTNB (retinal ganglion cells; 0.5 mM DTT in the presence of 1 mM DTNB) | nicotinic receptor function after reduction (nicotinic receptor; DTT 1-2 mM applied for 10-25 min) | death of retinal ganglion cells exposed to glutamate in the culture medium (retinal ganglion cells; APV 200 μM, DTT transient exposure, 12-24 hr) | increase of APV-preventable, glutamate-induced death (retinal ganglion cells; brief (5-10 min) exposure to DTT, survival monitored 12-24 hr)
O=C(O)c1cc(SSc2ccc([N+](=O)[O-])c(C(=O)O)c2)ccc1[N+](=O)[O-] [DTNB, 5′-5′-dithiobis-2-nitrobenzoic acid] | restored | totally blocked |  |  | 
O[C@@H](CS)[C@@H](O)CS [DTT, dithothreitol] |  |  | blocks nicotinic receptor function | substantially increased death | 70±9%
